Assay results as given in ChEMBL document CHEMBL1909046, “DrugMatrix in vitro pharmacology data”.

Columns and labels:
[1] = target: Beta-1 adrenergic receptor (Homo sapiens, UniProt P08588); test: DRUGMATRIX: Adrenergic beta1 radioligand binding (ligand: [125I] Cyanopindolol); format: cell membranes, CHO-K1, Membrane; conditions: cho-k1; Not Active = under 50% inhibition at 10 µM
[2] = target: Beta-2 adrenergic receptor (Homo sapiens, UniProt P07550); test: DRUGMATRIX: Adrenergic beta2 radioligand binding (ligand: [3H] CGP-12177); format: cell membranes, CHO, Membrane; conditions: cho; Not Active = under 50% inhibition at 10 µM
[3] = DRUGMATRIX: ATPase, Na+/K+ enzyme inhibition (substrate: ATP); format: tissue-based, Sus scrofa, Heart; conditions: Not Active = under 50% inhibition at 10 µM
[4] = DRUGMATRIX: GABAA, Muscimol, Central radioligand binding (ligand: [3H] Muscimol); format: cell membranes, Rattus norvegicus, Wistar, Brain, Membrane; conditions: Not Active = under 50% inhibition at 10 µM
[5] = target: Melanocortin receptor 4 (Homo sapiens, UniProt P32245); format: cell membranes, Membrane; conditions: hek293; note: in other assays of this panel Not Active means under 50% inhibition at 10 µM
[6] = target: Melanocortin receptor 5 (Homo sapiens, UniProt P33032); format: cell membranes, HEK293, Membrane; conditions: hek293; note: in other assays of this panel Not Active means under 50% inhibition at 10 µM
[7] = target: cGMP-specific 3',5'-cyclic phosphodiesterase (Homo sapiens, UniProt O76074); test: DRUGMATRIX: Phosphodiesterase PDE5 enzyme inhibition (substrate: [3H]cGMP + cGMP); format: tissue-based, Platelet; conditions: platelet; Not Active = under 50% inhibition at 10 µM
[8] = target: T1, Cytochrome P450 2A6 (Homo sapiens, UniProt P11509); conditions: bti-tn-5b1-4; note: in other assays of this panel Not Active means under 50% inhibition at 10 µM
T1 sequence (P11509 whole entry): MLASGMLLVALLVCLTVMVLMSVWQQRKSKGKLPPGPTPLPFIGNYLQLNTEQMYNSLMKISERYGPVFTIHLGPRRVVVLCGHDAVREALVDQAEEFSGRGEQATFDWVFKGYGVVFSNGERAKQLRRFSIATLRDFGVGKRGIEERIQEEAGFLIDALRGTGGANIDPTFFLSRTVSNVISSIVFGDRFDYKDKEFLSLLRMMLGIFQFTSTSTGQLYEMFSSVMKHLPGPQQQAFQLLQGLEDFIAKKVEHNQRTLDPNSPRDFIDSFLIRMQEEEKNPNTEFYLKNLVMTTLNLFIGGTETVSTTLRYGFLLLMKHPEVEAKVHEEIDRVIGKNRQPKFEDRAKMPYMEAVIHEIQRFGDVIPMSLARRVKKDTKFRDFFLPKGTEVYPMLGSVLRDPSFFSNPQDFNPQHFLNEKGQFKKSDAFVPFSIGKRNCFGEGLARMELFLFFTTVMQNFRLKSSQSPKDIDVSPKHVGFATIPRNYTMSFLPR

[9] = target: T2, Glucocorticoid receptor (Homo sapiens, UniProt P04150); conditions: hela s3; note: in other assays of this panel Not Active means under 50% inhibition at 10 µM
T2 sequence (P04150 whole entry): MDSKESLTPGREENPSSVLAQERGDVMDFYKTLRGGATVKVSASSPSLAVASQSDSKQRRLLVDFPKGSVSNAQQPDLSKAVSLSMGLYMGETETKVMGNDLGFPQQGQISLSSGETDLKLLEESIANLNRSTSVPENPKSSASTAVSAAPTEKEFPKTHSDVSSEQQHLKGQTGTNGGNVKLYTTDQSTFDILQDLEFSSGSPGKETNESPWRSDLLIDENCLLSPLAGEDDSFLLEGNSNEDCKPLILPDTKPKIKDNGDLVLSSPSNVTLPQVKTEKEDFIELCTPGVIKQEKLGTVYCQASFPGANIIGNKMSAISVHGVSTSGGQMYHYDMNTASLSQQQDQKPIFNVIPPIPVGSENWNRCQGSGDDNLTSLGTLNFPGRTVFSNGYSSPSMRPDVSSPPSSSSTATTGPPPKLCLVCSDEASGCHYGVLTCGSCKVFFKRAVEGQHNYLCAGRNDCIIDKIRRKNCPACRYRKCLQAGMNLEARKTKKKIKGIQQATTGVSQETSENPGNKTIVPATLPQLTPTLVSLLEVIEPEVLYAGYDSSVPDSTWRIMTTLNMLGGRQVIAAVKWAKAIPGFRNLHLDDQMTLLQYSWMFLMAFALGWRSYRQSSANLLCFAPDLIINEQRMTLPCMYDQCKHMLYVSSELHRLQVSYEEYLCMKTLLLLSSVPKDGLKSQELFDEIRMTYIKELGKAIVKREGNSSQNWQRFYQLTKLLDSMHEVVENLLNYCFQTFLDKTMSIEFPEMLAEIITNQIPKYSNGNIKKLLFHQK

Sequence of Melanocortin receptor 4 (P32245 whole entry): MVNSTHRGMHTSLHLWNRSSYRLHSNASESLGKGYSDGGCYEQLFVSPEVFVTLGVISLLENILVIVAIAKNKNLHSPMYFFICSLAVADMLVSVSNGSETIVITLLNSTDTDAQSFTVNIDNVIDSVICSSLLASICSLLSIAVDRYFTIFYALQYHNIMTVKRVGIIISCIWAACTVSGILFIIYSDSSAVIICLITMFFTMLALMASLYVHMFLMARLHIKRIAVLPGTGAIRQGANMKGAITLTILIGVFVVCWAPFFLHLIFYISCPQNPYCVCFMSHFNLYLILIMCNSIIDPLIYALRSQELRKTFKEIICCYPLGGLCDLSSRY
Sequence of Melanocortin receptor 5 (P33032 whole entry): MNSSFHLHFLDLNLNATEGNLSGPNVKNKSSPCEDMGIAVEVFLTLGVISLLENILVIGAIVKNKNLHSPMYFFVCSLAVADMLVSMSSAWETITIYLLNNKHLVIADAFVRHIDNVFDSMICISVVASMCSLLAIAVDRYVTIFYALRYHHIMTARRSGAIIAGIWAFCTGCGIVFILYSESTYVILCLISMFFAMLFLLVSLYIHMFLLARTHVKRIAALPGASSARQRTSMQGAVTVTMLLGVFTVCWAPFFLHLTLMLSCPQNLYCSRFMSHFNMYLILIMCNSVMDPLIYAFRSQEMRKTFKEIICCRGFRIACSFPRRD
Sequence of Beta-2 adrenergic receptor (P07550 whole entry): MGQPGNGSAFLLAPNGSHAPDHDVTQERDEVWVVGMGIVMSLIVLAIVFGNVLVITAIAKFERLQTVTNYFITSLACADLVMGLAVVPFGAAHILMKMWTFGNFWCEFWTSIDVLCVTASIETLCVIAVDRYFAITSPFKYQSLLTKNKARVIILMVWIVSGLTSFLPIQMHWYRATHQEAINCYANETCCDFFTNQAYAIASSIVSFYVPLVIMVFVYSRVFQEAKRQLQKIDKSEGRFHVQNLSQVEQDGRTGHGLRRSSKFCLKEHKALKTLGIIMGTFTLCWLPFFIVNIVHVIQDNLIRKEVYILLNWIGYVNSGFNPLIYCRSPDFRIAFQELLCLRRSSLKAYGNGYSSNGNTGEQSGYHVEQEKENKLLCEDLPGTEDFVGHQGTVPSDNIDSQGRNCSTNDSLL
Sequence of Beta-1 adrenergic receptor (P08588 whole entry): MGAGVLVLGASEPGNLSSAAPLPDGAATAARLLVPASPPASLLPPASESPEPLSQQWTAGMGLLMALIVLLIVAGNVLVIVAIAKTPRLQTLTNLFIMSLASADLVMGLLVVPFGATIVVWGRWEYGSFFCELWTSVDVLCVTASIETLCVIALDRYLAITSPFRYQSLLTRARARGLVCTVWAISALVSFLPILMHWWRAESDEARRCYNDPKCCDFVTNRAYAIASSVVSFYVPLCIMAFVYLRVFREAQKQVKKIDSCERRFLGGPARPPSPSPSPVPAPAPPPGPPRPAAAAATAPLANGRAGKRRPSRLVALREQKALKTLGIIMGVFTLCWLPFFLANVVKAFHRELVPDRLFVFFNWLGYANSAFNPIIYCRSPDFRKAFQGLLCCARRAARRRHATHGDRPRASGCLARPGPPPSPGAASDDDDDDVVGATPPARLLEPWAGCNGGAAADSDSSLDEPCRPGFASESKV

CC(C)(C#N)c1cc(Cn2cncn2)cc(C(C)(C)C#N)c1 [ANASTROZOLE]
Not Active: IC50 [1] | IC50 [2] | IC50 [3] | Ki [3] | IC50 [4] | Ki [4] | IC50 [5] | IC50 [6] | IC50 [7] | IC50 [8] | Ki [8] | IC50 [9]

CC12CCC(CC1=O)C2(C)C (configuration not stated) [CAMPHOR]
Not Active: IC50 [1] | IC50 [2] | IC50 [3] | Ki [3] | IC50 [4] | Ki [4] | IC50 [5] | IC50 [6] | IC50 [7] | IC50 [8] | Ki [8] | IC50 [9]

CC12CCC(CC1)C(C)(C)O2 [EUCALYPTOL]
Not Active: IC50 [1] | IC50 [2] | IC50 [3] | Ki [3] | IC50 [4] | Ki [4] | IC50 [5] | IC50 [6] | IC50 [7] | IC50 [8] | Ki [8] | IC50 [9]

Cc1ccnc2c1NC(=O)c1cccnc1N2C1CC1 [NEVIRAPINE]
Not Active: IC50 [1] | IC50 [2] | IC50 [3] | Ki [3] | IC50 [4] | Ki [4] | IC50 [5] | IC50 [6] | IC50 [7] | IC50 [8] | Ki [8] | IC50 [9]

Clc1cc(Cl)c(OCC#CI)cc1Cl [HALOPROGIN]
Not Active: IC50 [1] | IC50 [2] | IC50 [3] | Ki [3] | IC50 [4] | Ki [4] | IC50 [5] | IC50 [6] | IC50 [7] | IC50 [8] | Ki [8] | IC50 [9]

CCCCCCNC(=O)n1cc(F)c(=O)[nH]c1=O [CARMOFUR]
Not Active: IC50 [1] | IC50 [2] | IC50 [3] | Ki [3] | IC50 [4] | Ki [4] | IC50 [5] | IC50 [6] | IC50 [7] | IC50 [8] | Ki [8] | IC50 [9]

Nc1ccc(C(=O)O)c(O)c1 [AMINOSALICYLIC ACID]
Not Active: IC50 [1] | IC50 [2] | IC50 [3] | Ki [3] | IC50 [4] | Ki [4] | IC50 [5] | IC50 [6] | IC50 [7] | IC50 [8] | Ki [8] | IC50 [9]

Cc1cc(C(C)(C)C)c(O)c(C)c1CC1=NCCN1 [OXYMETAZOLINE]
Not Active: IC50 [1] | IC50 [2] | IC50 [3] | Ki [3] | IC50 [4] | Ki [4] | IC50 [5] | IC50 [6] | IC50 [7] | IC50 [8] | Ki [8] | IC50 [9]

O=c1[nH]cnc2c1ncn2[C@H]1CC[C@@H](CO)O1 [DIDANOSINE]
Not Active: IC50 [1] | IC50 [2] | IC50 [3] | Ki [3] | IC50 [4] | Ki [4] | IC50 [5] | IC50 [6] | IC50 [7] | IC50 [8] | Ki [8] | IC50 [9]

CC(=O)[C@]1(O)Cc2c(O)c3c(c(O)c2[C@@H](O[C@H]2C[C@H](N)[C@H](O)[C@H](C)O2)C1)C(=O)c1ccccc1C3=O [IDARUBICIN]
Not Active: IC50 [1] | IC50 [2] | IC50 [3] | Ki [3] | IC50 [4] | Ki [4] | IC50 [5] | IC50 [6] | IC50 [7] | IC50 [8] | Ki [8] | IC50 [9]

COC(=O)Nc1nc2ccc(Sc3ccccc3)cc2[nH]1 [FENBENDAZOLE]
Not Active: IC50 [1] | IC50 [2] | IC50 [3] | Ki [3] | IC50 [4] | Ki [4] | IC50 [5] | IC50 [6] | IC50 [7] | IC50 [8] | Ki [8] | IC50 [9]

C=C(Cl)Cl [1,1-DICHLOROETHENE]
Not Active: IC50 [1] | IC50 [2] | IC50 [3] | Ki [3] | IC50 [4] | Ki [4] | IC50 [5] | IC50 [6] | IC50 [7] | IC50 [8] | Ki [8] | IC50 [9]

O=C(O)CCc1nc(-c2ccccc2)c(-c2ccccc2)o1 [OXAPROZIN]
Not Active: IC50 [1] | IC50 [2] | IC50 [3] | Ki [3] | IC50 [4] | Ki [4] | IC50 [5] | IC50 [6] | IC50 [7] | IC50 [8] | Ki [8] | IC50 [9]

NCC(CC(=O)O)c1ccc(Cl)cc1 (configuration not stated) [BACLOFEN]
Not Active: IC50 [1] | IC50 [2] | IC50 [3] | Ki [3] | IC50 [4] | Ki [4] | IC50 [5] | IC50 [6] | IC50 [7] | IC50 [8] | Ki [8] | IC50 [9]

C=CCO [ALLYL ALCOHOL]
Not Active: IC50 [1] | IC50 [2] | IC50 [3] | Ki [3] | IC50 [4] | Ki [4] | IC50 [5] | IC50 [6] | IC50 [7] | IC50 [8] | Ki [8] | IC50 [9]

Cc1c(N)nc([C@H](CC(N)=O)NC[C@H](N)C(N)=O)nc1C(=O)N[C@H](C(=O)N[C@H](C)[C@@H](O)[C@H](C)C(=O)N[C@H](C(=O)NCCc1nc(-c2nc(C(=O)NCCC[S+](C)C)cs2)cs1)[C@@H](C)O)[C@@H](O[C@@H]1O[C@@H](CO)[C@@H](O)[C@H](O)[C@@H]1O[C@H]1O[C@H](CO)[C@@H](O)[C@H](OC(N)=O)[C@@H]1O)c1c[nH]cn1.[Br-] [BLEOMYCIN A2]
Not Active: IC50 [2] | IC50 [3] | Ki [3] | IC50 [4] | Ki [4] | IC50 [5] | IC50 [6] | IC50 [7] | IC50 [8] | Ki [8] | IC50 [9]

CCN(CCO)CCCC(C)Nc1ccnc2cc(Cl)ccc12 (configuration not stated) [HYDROXYCHLOROQUINE]
Not Active: IC50 [2] | IC50 [3] | Ki [3] | IC50 [4] | Ki [4] | IC50 [5] | IC50 [6] | IC50 [7] | IC50 [8] | Ki [8] | IC50 [9]

O=C(O)CNCP(=O)(O)O [GLYPHOSATE]
Not Active: IC50 [1] | IC50 [2] | IC50 [3] | Ki [3] | IC50 [4] | Ki [4] | IC50 [5] | IC50 [6] | IC50 [7] | IC50 [9]

COc1ccccc1OCCNCC(O)COc1cccc2[nH]c3ccccc3c12 (configuration not stated) [CARVEDILOL]
Not Active: IC50 [3] | Ki [3] | IC50 [4] | Ki [4] | IC50 [5] | IC50 [6] | IC50 [7] | IC50 [8] | Ki [8] | IC50 [9]
